Positions of bridges follow the written chain, without caps; N, C: chain ends. Residues, ends and D or L forms follow the SMILES beside them.

This assay is described as follows: Inhibition of C3b activation relative to compstatin.

The compound `CC[C@H](C)[C@H](N)C(=O)N[C@H]1CSSC[C@@H](C(=O)N[C@H](C(N)=O)[C@@H](C)O)NC(=O)[C@H](CCCCN)NC(=O)[C@H](Cc2cnc[nH]2)NC(=O)[C@H](Cc2cnc[nH]2)NC(=O)CNC(=O)[C@H](Cc2c[nH]c3ccccc23)NC(=O)[C@H](CC(=O)O)NC(=O)[C@H](CCC(N)=O)NC(=O)[C@H](C(C)C)NC(=O)[C@H](C(C)C)NC1=O` (H-ICVVQDWGHHKCT-NH2; disulfide 2-12) had a logIC50 of -0.226.

The compound `CC(C)C[C@H](N)C(=O)N[C@H]1CSSC[C@@H](C(=O)NCC(N)=O)NC(=O)[C@H](CCCNC(=N)N)NC(=O)[C@H](Cc2cnc[nH]2)NC(=O)[C@H](Cc2c[nH]c3ccccc23)NC(=O)CNC(=O)[C@H](Cc2c[nH]c3ccccc23)NC(=O)[C@H](CC(=O)O)NC(=O)[C@H](CCC(N)=O)NC(=O)[C@H](C(C)C)NC(=O)[C@H](C(C)C)NC1=O` (H-LCVVQDWGWHRCG-NH2; disulfide 2-12) returned a logIC50 of 0.617.

The compound `CC(C)C[C@@H]1NC(=O)[C@H](CCCNC(=N)N)NC(=O)CNC(=O)[C@H](Cc2c[nH]c3ccccc23)NC(=O)[C@H](CC(=O)O)NC(=O)[C@H](CCC(N)=O)NC(=O)[C@H](Cc2ccccc2)NC(=O)[C@H](C(C)C)NC(=O)[C@@H](NC(=O)[C@@H](N)CO)CSSC[C@@H](C(=O)N2CCC[C@H]2C(N)=O)NC(=O)[C@H](C)NC1=O` (H-SCVFQDWGRLACP-NH2; disulfide 2-12) returned a logIC50 of -0.301.

These data come from ChEMBL document CHEMBL1140602, “A simple, yet highly accurate, QSAR model captures the complement inhibitory activity of compstatin” (Bioorg Med Chem, 2007).
